Experimental data published in publication PMC9322123, “Design and Synthesis of New Pyrimidine-Quinolone Hybrids as Novel hLDHA Inhibitors” (Pharmaceuticals, 2022).
Entries after “also recorded” stand apart in the source; their conditions may differ.

Biological target: T1, hLDHA (Homo sapiens, UniProt P00338)
T1 construct: purchased Abcam
Experiment: hLDHA enzymatic assay (kinetic fluorometric, pyruvate substrate, NADH co-factor)
Format: biochemical
Settings: not given
Method: The inhibitory activity of the pyrimidine-quinolone hybrids 10, 15, 19, and 24–31(a–c) against the hLDHA enzyme was measured by a kinetic spectrofluorometric assay.
hLDHA activity was determined throughout a fluorometric method with pyruvate as substrate and NADH co-factor, as previously reported and modified as described here: in each well, the final volume was set to 200 µL, and the final concentrations were 100 mM potassium phosphate buffer, 0.041 units/mL hLDHA (95%, specific activity >300 units/mg and concentration of 0.5 mg/mL, Abcam, Cambridge, United Kingdom), 151 µM β-NADH, 1 mM pyruvate (saturated conditions), and DMSO solutions (2%, v/v) of pure compounds at concentrations in the range of 0.048–100 µM. The reaction was initiated by the addition of pyruvate, and the NADH concentration decrease was measured for 10 min in a TECAN Infinite 200 Pro M Plex fluorescence plate reader at 28 °C, with excitation at 340 nm and emission at 460 nm. The percentage of activity for each measure was calculated by comparison between the maximum slope of each compound concentration and the maximum slope when no inhibitor (DMSO only) was in the well (100% enzymatic activity). The compound 3-[[3[(cyclopropylamino)sulfonyl]-7-(2,4-dimethoxy-5-pyrimidinyl)-4-quinolinyl]amino]-5-(3,5-difluorophenoxy)benzoic acid (GSK 2837808 A, Tocris, Minneapolis, MN, USA) was used as a positive control.
The measurements were obtained thrice, and data were expressed as the mean ± SD of n = 3 replicates for IC50 values. As-obtained data were later plotted in GraphPad Prism version 5.00 for Windows (GraphPad Software, La Jolla, CA, USA). Nonlinear regression analysis was chosen for dose response curve, representing the logarithm of inhibitor concentration vs. normalized enzymatic activity in order to calculate IC50 values.
In the case of `COc1ccc2[nH]c(=O)c(CSc3ccc(Nc4nccc(-c5ccc6c(c5)OCO6)n4)cc3)cc2c1` [Compound 31c, 3-(((4-((4-(Benzo[d][1,3]dioxol-5-yl)pyrimidin-2-yl)amino)phenyl)thio)methyl)-6-methoxyquinolin-2(1H)-one], the “inhibitory activity against hLDHA (in words)” value is reported as “inactive”. In the case of `O=c1[nH]c2ccccc2cc1CSc1ccc(Nc2nccc(-c3ccc4c(c3)OCO4)n2)cc1` [Compound 31a, 3-(((4-((4-(Benzo[d][1,3]dioxol-5-yl)pyrimidin-2-yl)amino)phenyl)thio)methyl)quinolin-2(1H)-one], the “inhibitory activity against hLDHA (in words)” value is reported as “inactive”.

Same assay, conditions: hLDHA, 1 mM pyruvate, 151 µM β-NADH, compounds 0.048–100 µM, n = 3
`COc1ccc2[nH]c(=O)c(CSc3ccccc3Nc3nccc(-c4ccc(C(F)(F)F)cc4)n3)cc2c1` [Compound 25c, 6-Methoxy-3-(((2-((4-(4-(trifluoromethyl)phenyl)pyrimidin-2-yl)amino)phenyl)thio)methyl)quinolin-2(1H)-one] showed an IC50 of 71.8 µM. Work on `O=c1[nH]c2ccccc2cc1CSc1ccc(Nc2nccc(-c3ccc(C(F)(F)F)cc3)n2)cc1` [Compound 29a, 3-(((4-((4-(4-(Trifluoromethyl)phenyl)pyrimidin-2-yl)amino)phenyl)thio)methyl)quinolin-2(1H)-one] yielded an IC50 greater than 100 µM. In the case of `O=c1[nH]c2ccc(Cl)cc2cc1CSc1ccc(Nc2nccc(-c3ccc(C(F)(F)F)cc3)n2)cc1` [Compound 29b, 6-Chloro-3-(((4-((4-(4-(trifluoromethyl)phenyl)pyrimidin-2-yl)amino)phenyl)thio)methyl)quinolin-2(1H)-one], the IC50 is reported as 83.2 µM. In the case of `O=c1[nH]c2ccc(Cl)cc2cc1CSc1ccccc1Nc1nccc(-c2ccc3ccccc3c2)n1` [Compound 26b, 6-Chloro-3-(((2-((4-(naphthalen-2-yl)pyrimidin-2-yl)amino)phenyl)thio)me-thyl)quinolin-2(1H)-one], the IC50 is reported as 20.3 µM. In the case of `O=c1[nH]c2ccc(Cl)cc2cc1CSc1cccc(Nc2nccc(-c3ccc4ccccc4c3)n2)c1` [Compound 35b, 6-Chloro-3-(((3-((4-(naphthalen-2-yl)pyrimidin-2-yl)amino)phenyl)thio)me-thyl)quinolin-2(1H)-one], the IC50 is reported as 24.6 µM. Work on `O=c1[nH]c2ccccc2cc1CSc1cccc(Nc2nccc(-c3ccc4ccccc4c3)n2)c1` [Compound 35a, 3-(((3-((4-(Naphthalen-2-yl)pyrimidin-2-yl)amino)phenyl)thio)methyl)quinolin-2(1H)-one] yielded an IC50 of 19.6 µM. For `O=c1[nH]c2ccc(Cl)cc2cc1CSc1ccc(Nc2nccc(-c3ccc(Cl)cc3)n2)cc1` [Compound 28b, 6-Chloro-3-(((4-((4-(4-chlorophenyl)pyrimidin-2-yl)amino)phenyl)thio)meth-yl)quinolin-2(1H)-one], the IC50 was greater than 100 µM. With `COc1ccc2[nH]c(=O)c(CSc3ccc(Nc4nccc(-c5ccc(C(F)(F)F)cc5)n4)cc3)cc2c1` [Compound 29c, 6-Methoxy-3-(((4-((4-(4-(trifluoromethyl)phenyl)pyrimidin-2-yl)amino)phenyl)thio)methyl)quinolin-2(1H)-one] the IC50 was greater than 100 µM. For `O=c1[nH]c2ccc(Cl)cc2cc1CSc1ccccc1Nc1nccc(-c2ccc(Cl)cc2)n1` [Compound 24b, 6-Chloro-3-(((2-((4-(4-chlorophenyl)pyrimidin-2-yl)amino)phenyl)thio)meth-yl)quinolin-2(1H)-one], the IC50 was 34.8 µM. With `COc1ccc2[nH]c(=O)c(CSc3ccccc3Nc3nccc(-c4ccc(Cl)cc4)n3)cc2c1` [Compound 24c, 3-(((2-((4-(4-Chlorophenyl)pyrimidin-2-yl)amino)phenyl)thio)methyl)-6-methoxyquinolin-2(1H)-one] the IC50 was 79.1 µM. With `COc1ccc2[nH]c(=O)c(CSc3ccc(Nc4nccc(-c5ccc6ccccc6c5)n4)cc3)cc2c1` [Compound 30c, 6-Methoxy-3-(((4-((4-(naphthalen-2-yl)pyrimidin-2-yl)amino)phenyl)thio)methyl)quinolin-2(1H)-one] the IC50 was greater than 100 µM. Work on `O=c1[nH]c2ccccc2cc1COc1ccc(Nc2nccc(-c3ccc(Cl)cc3)n2)cc1` [Compound 15, 3-((4-((4-(4-Chlorophenyl)pyrimidin-2-yl)amino)phenoxy)methyl)quinolin-2(1H)-one] yielded an IC50 greater than 100 µM. `O=c1[nH]c2ccc(Cl)cc2cc1CSc1ccccc1Nc1nccc(-c2ccc3c(c2)OCO3)n1` [Compound 27b, 3-(((2-((4-(Benzo[d][1,3]dioxol-5-yl)pyrimidin-2-yl)amino)phenyl)thio)methyl)-6-chloroquinolin-2(1H)-one] gave an IC50 of 89 µM. In the case of `COc1ccc2[nH]c(=O)c(CSc3ccc(Nc4nccc(-c5ccc(Cl)cc5)n4)cc3)cc2c1` [Compound 28c, 3-(((4-((4-(4-Chlorophenyl)pyrimidin-2-yl)amino)phenyl)thio)methyl)-6-methoxyquinolin-2(1H)-one], the IC50 is reported as greater than 100 µM. Work on `O=c1[nH]c2ccc(Cl)cc2cc1CSc1ccccc1Nc1nccc(-c2ccc(C(F)(F)F)cc2)n1` [Compound 25b, 6-Chloro-3-(((2-((4-(4-(trifluoromethyl)phenyl)pyrimidin-2-yl)amino)phenyl)thio)methyl)quinolin-2(1H)-one] yielded an IC50 of 42.3 µM. Work on `COc1ccc2[nH]c(=O)c(CSc3ccc(Nc4nccc(-c5ccc6c(c5)OCO6)n4)cc3)cc2c1` [Compound 31c, 3-(((4-((4-(Benzo[d][1,3]dioxol-5-yl)pyrimidin-2-yl)amino)phenyl)thio)methyl)-6-methoxyquinolin-2(1H)-one] yielded an IC50 greater than 100 µM. Work on `O=c1[nH]c2ccccc2cc1CSc1ccccc1Nc1nccc(-c2ccc(C(F)(F)F)cc2)n1` [Compound 25a, 3-(((2-((4-(4-(Trifluoromethyl)phenyl)pyrimidin-2-yl)amino)phenyl)thio)methyl)quinolin-2(1H)-one] yielded an IC50 of 26.9 µM. In the case of `O=c1[nH]c2ccccc2cc1CSc1ccc(Nc2nccc(-c3ccc(Cl)cc3)n2)cc1` [Compound 28a, 3-(((4-((4-(4-Chlorophenyl)pyrimidin-2-yl)amino)phenyl)thio)methyl)quinolin-2(1H)-one], the IC50 is reported as greater than 100 µM. For `O=c1[nH]c2ccccc2cc1CSc1ccc(Nc2nccc(-c3ccc4ccccc4c3)n2)cc1` [Compound 30a, 3-(((4-((4-(Naphthalen-2-yl)pyrimidin-2-yl)amino)phenyl)thio)methyl)quinolin-2(1H)-one], the IC50 was 62.9 µM. `O=c1[nH]c2ccccc2cc1CSc1ccc(Nc2nccc(-c3ccc4c(c3)OCO4)n2)cc1` [Compound 31a, 3-(((4-((4-(Benzo[d][1,3]dioxol-5-yl)pyrimidin-2-yl)amino)phenyl)thio)methyl)quinolin-2(1H)-one] gave an IC50 greater than 100 µM. `COc1ccc2[nH]c(=O)c(CSc3ccccc3Nc3nccc(-c4ccc5c(c4)OCO5)n3)cc2c1` [Compound 27c, 3-(((2-((4-(Benzo[d][1,3]dioxol-5-yl)pyrimidin-2-yl)amino)phenyl)thio)methyl)-6-methoxyquinolin-2(1H)-one] showed an IC50 of 60 µM. Work on `O=c1[nH]c2ccccc2cc1COc1ccccc1Oc1nccc(-c2ccc(Cl)cc2)n1` [Compound 19, 3-((2-((4-(4-Chlorophenyl)pyrimidin-2-yl)oxy)phenoxy)methyl)quinolin-2(1H)-one] yielded an IC50 greater than 100 µM. `O=c1[nH]c2ccccc2cc1CSc1ccccc1Nc1nccc(-c2ccc(Cl)cc2)n1` [Compound 24a, 3-(((2-((4-(4-Chlorophenyl)pyrimidin-2-yl)amino)phenyl)thio)methyl)quinolin-2(1H)-one] gave an IC50 of 31.5 µM. `COc1ccc2[nH]c(=O)c(CSc3cccc(Nc4nccc(-c5ccc6ccccc6c5)n4)c3)cc2c1` [Compound 35c, 6-Methoxy-3-(((3-((4-(naphthalen-2-yl)pyrimidin-2-yl)amino)phenyl)thio)methyl)quinolin-2(1H)-one] showed an IC50 of 50.1 µM. `O=c1[nH]c2ccccc2cc1CSc1ccccc1Nc1nccc(-c2ccc3c(c2)OCO3)n1` [Compound 27a, 3-(((2-((4-(Benzo[d][1,3]dioxol-5-yl)pyrimidin-2-yl)amino)phenyl)thio)methyl)quinolin-2(1H)-one] gave an IC50 greater than 100 µM. With `O=c1[nH]c2ccccc2cc1CSc1ccccc1Nc1nccc(-c2ccc3ccccc3c2)n1` [Compound 26a, 3-(((2-((4-(Naphthalen-2-yl)pyrimidin-2-yl)amino)phenyl)thio)methyl)quinolin-2(1H)-one] the IC50 was 17.8 µM. For `O=c1[nH]c2ccc(Cl)cc2cc1CSc1ccc(Nc2nccc(-c3ccc4c(c3)OCO4)n2)cc1` [Compound 31b, 3-(((4-((4-(Benzo[d][1,3]dioxol-5-yl)pyrimidin-2-yl)amino)phenyl)thio)methyl)-6-chloroquinolin-2(1H)-one], the IC50 was 49.9 µM. In the case of `O=c1[nH]c2ccc(Cl)cc2cc1CSc1ccc(Nc2nccc(-c3ccc4ccccc4c3)n2)cc1` [Compound 30b, 6-Chloro-3-(((4-((4-(naphthalen-2-yl)pyrimidin-2-yl)amino)phenyl)thio)methyl)quinolin-2(1H)-one], the IC50 is reported as greater than 100 µM. `COc1ccc2[nH]c(=O)c(CSc3ccccc3Nc3nccc(-c4ccc5ccccc5c4)n3)cc2c1` [Compound 26c, 6-Methoxy-3-(((2-((4-(naphthalen-2-yl)pyrimidin-2-yl)amino)phenyl)thio)methyl)quinolin-2(1H)-one] showed an IC50 of 27.7 µM.

Biological target: T1, hLDHA
Experiment: not given
Design: method as in PMID 25466195
Settings: W31, ligand of complex 4R68; cited from earlier work
In the case of `C[C@H](OC(=O)Cc1ccc(Cl)c(SC2=C(O)C[C@@H](c3c(Cl)cccc3Cl)CC2=O)c1)c1ccccc1` [Compound W31], the IC50 is given as 0.006 µM.

Tested on: not listed separately
Experiment: Solubility as observed on handling
Format: physicochemical
Settings: not given
For `O=c1[nH]c2ccccc2cc1COc1ccc(Nc2nccc(-c3ccc(Cl)cc3)n2)cc1` [Compound 15, 3-((4-((4-(4-Chlorophenyl)pyrimidin-2-yl)amino)phenoxy)methyl)quinolin-2(1H)-one], the “solubility (in words)” value was “highly insoluble; also recorded: problems related with solubility”.
